Laboratory results published in the NIST ThermoML archive (doi:10.1021/je9001027).

Assays:
[1] = 101 kPa, Liquid
[2] = wn = mass fraction of the nth substance listed; settings: 101 kPa, Liquid
[3] = cn = amount concentration of the nth substance listed, in mol/dm3; settings: 101 kPa, Liquid

C[S+](C)[O-] [dimethyl sulfoxide]
[1]
Settings | mass density [kg/m3] | viscosity [mPa·s]
298.15 K | 1095.41 | 1.966
303.15 K | 1090.13 | 1.809
308.15 K | 1085.38 | 1.652
313.15 K | 1080.58 | 1.559
318.15 K | 1074.5 | 1.488

C[S+](C)[O-] [dimethyl sulfoxide] + O
[2]
Settings | mass density, 298.15 K [kg/m3] | mass density, 303.15 K [kg/m3] | mass density, 308.15 K [kg/m3] | mass density, 313.15 K [kg/m3] | mass density, 318.15 K [kg/m3] | viscosity, 298.15 K [mPa·s] | viscosity, 303.15 K [mPa·s] | viscosity, 308.15 K [mPa·s] | viscosity, 313.15 K [mPa·s] | viscosity, 318.15 K [mPa·s]
w1 = 0.2 | 1024.2 | 1019.7 | 1015.2 | 998.4 | 979.2 | 1.34 | – | 1.054 | 0.9572 | 0.8482
w1 = 0.4 | 1053.47 | 1052.47 | 1045.3 | 1040.12 | 1038.01 | 2.221 | 2.221 | 1.921 | 1.618 | 1.497
w1 = 0.5 | 1067.81 | 1062.43 | 1056.4 | 1048.28 | 1047.52 | 2.807 | 2.465 | 2.28 | 2.14 | 1.937
w1 = 0.6 | 1082.31 | 1081.11 | 1072.8 | 1065.21 | 1057.1 | 3.421 | 3.421 | 3.105 | 2.846 | 2.775
w1 = 0.7 | 1087.32 | 1084.92 | 1080.83 | 1075.23 | 1067.12 | 2.357 | – | 2.081 | 1.927 | 1.865
w1 = 1 | 1095.41 | 1090.13 | 1085.38 | 1080.58 | 1074.5 | 1.966 | 1.809 | 1.652 | 1.559 | 1.488

[Br-].[Rb+] [rubidium bromide] + C[S+](C)[O-]
[3]
Settings | mass density, 298.15 K [kg/m3] | mass density, 303.15 K [kg/m3] | mass density, 308.15 K [kg/m3] | mass density, 313.15 K [kg/m3] | mass density, 318.15 K [kg/m3] | viscosity, 298.15 K [mPa·s] | viscosity, 303.15 K [mPa·s] | viscosity, 308.15 K [mPa·s] | viscosity, 313.15 K [mPa·s] | viscosity, 318.15 K [mPa·s]
c1 = 0.011 | 1096.9 | 1092.54 | 1087.75 | 1087.75 | 1096.42 | 1.997 | 1.839 | 1.682 | 1.587 | 1.515
c1 = 0.02 | 1098.3 | 1097.71 | – | 1088.77 | 1096.52 | 2.019 | 1.861 | – | 1.604 | 1.531
c1 = 0.024 | – | – | 1088.77 | – | – | – | – | 1.701 | – | –
c1 = 0.026 | – | 1106.91 | – | – | – | – | 1.877 | – | – | –
c1 = 0.027 | 1100.1 | – | 1088.97 | – | 1096.58 | 2.039 | – | 1.712 | – | 1.542
c1 = 0.028 | – | – | – | 1089.77 | – | – | – | – | 1.615 | –
c1 = 0.03 | 1100.4 | 1110.93 | 1089.97 | 1089.97 | 1096.6 | 2.047 | 1.884 | 1.722 | 1.62 | 1.549
c1 = 0.046 | 1102.5 | – | – | 1091.97 | – | 2.085 | – | – | 1.659 | –
c1 = 0.056 | – | 1134.93 | 1091.97 | – | 1096.9 | – | 1.923 | 1.759 | – | 1.581

[Br-].[Rb+] [rubidium bromide] + O
[3]
Settings | mass density, 298.15 K [kg/m3] | mass density, 303.15 K [kg/m3] | mass density, 308.15 K [kg/m3] | viscosity, 298.15 K [mPa·s] | viscosity, 303.15 K [mPa·s] | viscosity, 318.15 K [mPa·s]
c1 = 0.01 | 996.69 | 996.08 | 989.87 | 0.893 | 0.8934 | 0.5367
c1 = 0.013 | 996.84 | 996.08 | 989.89 | 0.8935 | 0.8937 | 0.537
c1 = 0.02 | 997.03 | 996.14 | 989.99 | 0.8953 | 0.8943 | 0.5375
c1 = 0.024 | – | – | 990.03 | – | – | 0.5378
c1 = 0.025 | 997.28 | 996.17 | – | 0.8962 | 0.8946 | –
c1 = 0.034 | – | – | – | – | – | 0.5383
c1 = 0.035 | – | – | 990.13 | – | – | –
c1 = 0.038 | 997.79 | 996.24 | – | 0.8966 | 0.895 | –

O [water] + C[S+](C)[O-]
[2], w2 = 0
Settings | mass density [kg/m3] | viscosity [mPa·s]
298.15 K | – | 0.89
303.15 K | – | 0.8003
308.15 K | 983.66 | 0.7591
313.15 K | – | 0.6214
318.15 K | – | 0.5346
